Experimental findings from patent publication US20220132847A1, “CINNOLINIUM COMPOUNDS FOR USE IN A METHOD OF CONTROLLING UNWANTED PLANT GROWTH” (SYNGENTA CROP PROTECTION AG, priority 2019, published 2022) are described below.

Holding throughout (test): Post-emergence efficacy, glasshouse
What all share (format): in vivo

Assay [1] has as its system Euphorbia heterophylla (EPHHL). The following applies: evaluated after 13 days, 100=total damage to plant, 0=no damage to plant; for pest or weed control at 500 g/ha / pest or weed control at 1000 g/ha: Euphorbia heterophylla, post-emergence, 312 h, read-out: Control of weed species after post-emergence application, EPHHL; for pest or weed control at 500 g/ha: Application Rate 500 g/Ha. Here is the method: (§1) Seeds of a variety of test species were sown in standard soil in pots. After cultivation for 14 days (post-emergence) under controlled conditions in a glasshouse (at 24/16° C., day/night; 14 hours light; 65% humidity), the plants were sprayed with an aqueous spray solution derived from the dissolution of the technical active ingredient formula (I) in a small amount of acetone and a special solvent and emulsifier mixture referred to as IF50 (11.12% Emulsogen EL360™+44.44% N-methylpyrrolidone+44.44% Dowanol DPM glycol ether), to create a 50 g/l solution which was then diluted to required concentration using 0.25% or 1% Empicol ESC70 (Sodium lauryl ether sulphate)+1% ammonium sulphate in water as diluent.
(§2) The test plants were then grown in a glasshouse under controlled conditions (at 24/16° C., day/night; 14 hours light; 65% humidity) and watered twice daily. After 13 days the test was evaluated (100=total damage to plant; 0=no damage to plant).
(§3) Ipomoea hederacea (IPOHE), Euphorbia heterophylla (EPHHL), Chenopodium album (CHEAL), Amaranthus palmeri (AMAPA), Lolium perenne (LOLPE), Digitaria sanguinalis (DIGSA), Eleusine indica (ELEIN), Echinochloa crus-galli (ECHCG), Setaria faberi (SETFA)

Another assay relates to Lolium perenne (LOLPE). As to conditions: evaluated after 13 days, 100=total damage to plant, 0=no damage to plant; for pest or weed control at 500 g/ha / pest or weed control at 1000 g/ha: Lolium perenne, post-emergence, 312 h, read-out: Control of weed species after post-emergence application, LOLPE; for pest or weed control at 500 g/ha: Application Rate 500 g/Ha. Here is the method:
as §1, §2, §3

The test system of assay [2] is Amaranthus palmeri (AMAPA). The following applies: evaluated after 13 days, 100=total damage to plant, 0=no damage to plant; for pest or weed control at 500 g/ha / pest or weed control at 1000 g/ha: Amaranthus palmeri, post-emergence, 312 h, read-out: Control of weed species after post-emergence application, AMAPA; for pest or weed control at 500 g/ha: Application Rate 500 g/Ha. On the procedure:
as §1, §2, §3

In assay [3] the test system is Echinochloa crus-galli (ECHCG). The following applies: evaluated after 13 days, 100=total damage to plant, 0=no damage to plant; for pest or weed control at 500 g/ha / pest or weed control at 1000 g/ha: Echinochloa crus-galli, post-emergence, 312 h, read-out: Control of weed species after post-emergence application, ECHCG; for pest or weed control at 500 g/ha: Application Rate 500 g/Ha. On the procedure: as §1, §2, §3

The next assay has as its system Setaria faberi (SETFA). The following applies: evaluated after 13 days, 100=total damage to plant, 0=no damage to plant; for pest or weed control at 500 g/ha / pest or weed control at 1000 g/ha: Setaria faberi, post-emergence, 312 h, read-out: Control of weed species after post-emergence application, SETFA; for pest or weed control at 500 g/ha: Application Rate 500 g/Ha. Here is the method: as §1, §2, §3

Assay [4] deals with Digitaria sanguinalis (DIGSA). As to conditions: evaluated after 13 days, 100=total damage to plant, 0=no damage to plant; for pest or weed control at 500 g/ha / pest or weed control at 1000 g/ha: Digitaria sanguinalis, post-emergence, 312 h, read-out: Control of weed species after post-emergence application, DIGSA; for pest or weed control at 500 g/ha: Application Rate 500 g/Ha. On the procedure: as §1, §2, §3

Assay [5] relates to Chenopodium album (CHEAL). The following applies: evaluated after 13 days, 100=total damage to plant, 0=no damage to plant; for pest or weed control at 500 g/ha / pest or weed control at 1000 g/ha: Chenopodium album, post-emergence, 312 h, read-out: Control of weed species after post-emergence application, CHEAL; for pest or weed control at 500 g/ha: Application Rate 500 g/Ha. On the procedure:
as §1, §2, §3

The next assay deals with Eleusine indica (ELEIN). As to conditions: evaluated after 13 days, 100=total damage to plant, 0=no damage to plant; for pest or weed control at 500 g/ha / pest or weed control at 1000 g/ha: Eleusine indica, post-emergence, 312 h, read-out: Control of weed species after post-emergence application, ELEIN; for pest or weed control at 500 g/ha: Application Rate 500 g/Ha. Here is the method:
as §1, §2, §3

Assay [6] has as its system Ipomoea hederacea (IPOHE). As to conditions: evaluated after 13 days, 100=total damage to plant, 0=no damage to plant; for pest or weed control at 500 g/ha / pest or weed control at 1000 g/ha: Ipomoea hederacea, post-emergence, 312 h, read-out: Control of weed species after post-emergence application, IPOHE; for pest or weed control at 500 g/ha: Application Rate 500 g/Ha. Here is the method: as §1, §2, §3

In the case of `CCOP(=O)([O-])c1c[n+](C(C)(C)C)nc2ccccc12` [Compound A75, (2-tert-butylcinnolin-2-ium-4-yl)-ethoxy-phosphinate], the pest or weed control at 500 g/ha was 30% in [1]; 30% with Lolium perenne (LOLPE); 50% in assay [2]; 70% in assay [3]; 30% in the assay with Setaria faberi (SETFA); 30% in assay [4]. The pest or weed control at 500 g/ha in assay [5] amounted to 50%; in the assay with Eleusine indica (ELEIN), 70%; in assay [6] it was 30%.
Take `C[n+]1cc(C(=O)Nc2nncs2)c2ccccc2n1` [Compound A26]: the pest or weed control at 1000 g/ha came to 20% in assay [1] (Application Rate 1000 g/Ha); 10% with Lolium perenne (LOLPE) (Application Rate 1000 g/Ha); 20% in assay [2] (Application Rate 1000 g/Ha); 20% in assay [3] (Application Rate 1000 g/Ha); 10% in the assay on Setaria faberi (SETFA) (Application Rate 1000 g/Ha); 0% in assay [4] (Application Rate 1000 g/Ha). For the same molecule, the pest or weed control at 1000 g/ha in assay [5] (Application Rate 1000 g/Ha) stood at 40%; in the assay with Eleusine indica (ELEIN) (Application Rate 1000 g/Ha) it was 20%; in assay [6] (Application Rate 1000 g/Ha) it was 30%.
Consider `COC(=O)c1c[n+](C)nc2ccccc12` [Compound A2], for which the pest or weed control at 1000 g/ha in [1] (Application Rate 1000 g/Ha) was found to be 70%; in the assay on Lolium perenne (LOLPE) (Application Rate 1000 g/Ha), 30%; in assay [2] (Application Rate 1000 g/Ha), 100%; in [3] (Application Rate 1000 g/Ha) it was 30%; in the assay with Setaria faberi (SETFA) (Application Rate 1000 g/Ha), 60%; in assay [4] (Application Rate 1000 g/Ha), 60%. Moreover, the pest or weed control at 1000 g/ha (in [5] (Application Rate 1000 g/Ha); in the assay on Eleusine indica (ELEIN) (Application Rate 1000 g/Ha); in assay [6] (Application Rate 1000 g/Ha)) was 70% throughout.
For `CC[n+]1cc(P(=O)([O-])O)c2ccccc2n1` [Compound A66], the pest or weed control at 1000 g/ha in assay [1] (Application Rate 1000 g/Ha) is 80%; in the assay on Lolium perenne (LOLPE) (Application Rate 1000 g/Ha) it was 10%; in assay [2] (Application Rate 1000 g/Ha) it was 40%; in [3] (Application Rate 1000 g/Ha) it was 60%; in the assay on Setaria faberi (SETFA) (Application Rate 1000 g/Ha), 70%; in assay [4] (Application Rate 1000 g/Ha), 90%. The pest or weed control at 1000 g/ha in assay [5] (Application Rate 1000 g/Ha) amounted to 30%; with Eleusine indica (ELEIN) (Application Rate 1000 g/Ha) it was 70%; in [6] (Application Rate 1000 g/Ha) it was 60%.
Regarding `C[n+]1cc(CP(=O)([O-])O)c2ccccc2n1` [Compound A50, (2-methylcinnolin-2-ium-4-yl)methylphosphonic acid], the pest or weed control at 1000 g/ha came to 20% in assay [1] (Application Rate 1000 g/Ha); 0% in the assay on Lolium perenne (LOLPE) (Application Rate 1000 g/Ha); 60% in assay [2] (Application Rate 1000 g/Ha); 20% in [3] (Application Rate 1000 g/Ha); 10% in the assay on Setaria faberi (SETFA) (Application Rate 1000 g/Ha); 20% in [4] (Application Rate 1000 g/Ha). The pest or weed control at 1000 g/ha is 30% in [5] (Application Rate 1000 g/Ha), 30% with Eleusine indica (ELEIN) (Application Rate 1000 g/Ha) and 20% in [6] (Application Rate 1000 g/Ha).
For `CCOP(=O)(O)c1c[n+](CCO)nc2ccccc12` [Compound A69], the pest or weed control at 500 g/ha in assay [1] was 100%; in the assay with Lolium perenne (LOLPE) it was 40%; in [2] it was 100%; in assay [3], 70%; in the assay on Setaria faberi (SETFA), 90%; in [4], 100%. Besides, the pest or weed control at 500 g/ha (in assay [5]; with Eleusine indica (ELEIN); in [6]) was 90% in each case.
For the molecule `Cc1c(C(=O)[O-])c2ccccc2n[n+]1C` [Compound A61, 2,3-dimethylcinnolin-2-ium-4-carboxylate], the pest or weed control at 1000 g/ha in assay [1] (Application Rate 1000 g/Ha) turned out to be 70%; with Lolium perenne (LOLPE) (Application Rate 1000 g/Ha), 10%; in assay [2] (Application Rate 1000 g/Ha), 100%; in [3] (Application Rate 1000 g/Ha) it was 50%; in the assay with Setaria faberi (SETFA) (Application Rate 1000 g/Ha), 40%; in assay [4] (Application Rate 1000 g/Ha), 70%. The figures for the pest or weed control at 1000 g/ha (in assay [5] (Application Rate 1000 g/Ha); with Eleusine indica (ELEIN) (Application Rate 1000 g/Ha); in assay [6] (Application Rate 1000 g/Ha)) were 100%, 90% and 100%, respectively.
In the case of “ethoxy-[(2-methylcinnolin-2-ium-4-yl)methyl]phosphinic acid [Compound A51]”, in assay [1] (Application Rate 1000 g/Ha), the “Control of weed species after post-emergence application, EPHHL” value came out at 90. In addition, the “Control of weed species after post-emergence application, LOLPE” value with Lolium perenne (LOLPE) (Application Rate 1000 g/Ha) is 20. In addition, the “Control of weed species after post-emergence application, AMAPA” value in assay [2] (Application Rate 1000 g/Ha) is reported as 90. Moreover, the “Control of weed species after post-emergence application, ECHCG” value in [3] (Application Rate 1000 g/Ha) was 70. Besides, the “Control of weed species after post-emergence application, SETFA” value in the assay with Setaria faberi (SETFA) (Application Rate 1000 g/Ha) came out at 90. For the same molecule, the “Control of weed species after post-emergence application, DIGSA” value in [4] (Application Rate 1000 g/Ha) is on record as 90. Besides, the “Control of weed species after post-emergence application, CHEAL” value in [5] (Application Rate 1000 g/Ha) turned out to be 60. Also, the “Control of weed species after post-emergence application, ELEIN” value in the assay with Eleusine indica (ELEIN) (Application Rate 1000 g/Ha) is listed as 80. Moreover, the “Control of weed species after post-emergence application, IPOHE” value in assay [6] (Application Rate 1000 g/Ha) turned out to be 60.
Take `CC(C)OP(=O)([O-])c1c[n+](C(C)(C)C)nc2ccccc12` [Compound A74]: the pest or weed control at 500 g/ha in [1] is 50%; in the assay with Lolium perenne (LOLPE), 30%; in assay [2] it was 100%; in assay [3], 10%; with Setaria faberi (SETFA), 20%; in [4], 20%. Moreover, the pest or weed control at 500 g/ha in [5] was found to be 60%; in the assay on Eleusine indica (ELEIN), 60%; in assay [6], 50%.
In the case of `CCCCCCCC[n+]1cc(C(=O)[N-]S(C)(=O)=O)c2ccccc2n1` [Compound A40], the pest or weed control at 1000 g/ha in [1] (Application Rate 1000 g/Ha) was 30%; with Lolium perenne (LOLPE) (Application Rate 1000 g/Ha), 20%; in [2] (Application Rate 1000 g/Ha) it was 90%; in assay [3] (Application Rate 1000 g/Ha), 20%; in the assay on Setaria faberi (SETFA) (Application Rate 1000 g/Ha) it was 40%; in [4] (Application Rate 1000 g/Ha) it was 20%. The pest or weed control at 1000 g/ha in [5] (Application Rate 1000 g/Ha) turned out to be 70%; in the assay on Eleusine indica (ELEIN) (Application Rate 1000 g/Ha), 10%; in [6] (Application Rate 1000 g/Ha) it was 10%.
